Laboratory results reported in US20230082968A1, “EXOGENOUS NITRIC OXIDE FOR IMPROVED SUSCEPTIBILITY AND LOWERED ANTIBIOTIC RESISTANCE IN RESISTANT RESPIRATORY BACTERIA” (The University of North Carolina at Chapel Hill, priority 2020, published 2023).
≈ marks a conversion by molar mass, not a printed value. Entries after “also recorded” stand apart in the source; their conditions may differ.

Assays:
[1] = system: P. aeruginosa strain K (PAK); test: Checkerboard assay of antibiotic combinations with COS/NO; assay type: cell-based, Pseudomonas aeruginosa; conditions: antibiotic in combination with COS/NO, 24 h
Method: Frozen stocks of bacteria were reconstituted in TSB (3 mL) and cultured overnight. The overnight cultures of bacteria (3 mL) were inoculated into fresh TSB (30 mL) and grown to 10^8 CFU/mL. […] Inhibition was assessed with the resazurin assay and the minimum inhibitory concentration (MIC) was defined as the lowest concentration of antibacterial agent required to prevent the reduction of resazurin (i.e., color change from blue to pink).
Mol. Pharm. 7, 2289-2296 (2010)]. Briefly, bacteria at a final concentration of 10^6 CFU/mL were incubated with an array of antimicrobial combinations in TSB for 24 h at 37° C. The highest concentration for each antimicrobial tested was 2 × MIC. […] The fractional […] concentration index (ΣFIC) was calculated using Equation 1, reported by Elion et al. [Elion, G. B., Singer, S. & Hitchings, G. H. Antagonists of Nucleic Acid Derivatives: VIII. Synergism in combinations of biochemically related antimetabolites. […] Checkerboard assays were conducted in at least duplicate for each bacterial strain and for each drug combination.
Characterization of the combinations was performed using the following criteria based on ΣFIC values: < 0.25 is highly synergistic; ≤ 0.5 is synergistic; ≤ 1 is additive; ≤ 4 is indifferent; > 4 is antagonistic.

PA 229 = test: 24 h combination time kill assay; assay type: cell-based, P. aeruginosa; conditions: PA 229, COS/NO and tobramycin, 24 h time kill
Method: (§1) Time-kill assays were performed over 24 h in order to quantitatively probe the effect of each antibiotic-NO combination as a function of time [Belley, A. et al. Assessment by time-kill methodology of the synergistic effects of oritavancin in combination with other antimicrobial agents against Staphylococcus aureus. Antimicrob. Agents Chemother. 52, 3820-3822 (2008)]. […] Aliquots were sampled at 0, 3, 6, and 24 h, serially diluted, and logarithmically plated on TSA plates using an Eddy Jet spiral plater (IUL; Farmingdale, NY). Bacterial viability was assessed by counting the number of colonies formed with a Flash & Go colony counter (IUL; Farmingdale, NY).

PA 230 = test: 24 h combination time kill assay; assay type: cell-based, P. aeruginosa; conditions: PA 230 (tobramycin-resistant), COS/NO and tobramycin, 24 h time kill
Method: as §1

PA 237 = test: 24 h combination time kill assay; assay type: cell-based, P. aeruginosa; conditions: PA 237, COS/NO and tobramycin, 24 h time kill
Method: as §1

PA 239 = test: 24 h combination time kill assay; assay type: cell-based, P. aeruginosa; conditions: PA 239 (tobramycin-resistant), COS/NO and tobramycin, 24 h time kill
Method: as §1

AR 230 = test: Nitric oxide pretreatment with planktonic bacteria; assay type: cell-based, P. aeruginosa; conditions: AR 230, antibiotic 2000 µg/mL, NO-pretreatment 25% MIC 4 h
Method: (§2) After exposure, wells were serially diluted in sterile MilliQ water and spiral plated on TSA. Viability was assessed by colony counting.

ATCC S.aureus = test: Nitric oxide pretreatment with planktonic bacteria; assay type: cell-based, Staphylococcus aureus
Method: as §2

ATCC MRSA = test: Nitric oxide pretreatment with planktonic bacteria; assay type: cell-based, Methicillin-resistant S. aureus
Method: as §2

PAK biofilm = test: Biofilm pretreatment with nitric oxide; assay type: cell-based, Pseudomonas aeruginosa
Method: (§3) Bacteria were cultured to a concentration of 10^8 CFU/mL in TSB and diluted to 10^6 CFU/mL in 200 µL TSB in a 96 well plate. Plates were incubated with shaking for 3 days until a non-surface attached viscous aggregate formed that was easily separated from growth medium. Biofilms (100 µL) were removed, gently injected into PBS (200 µL) to remove loosely adhered planktonic cells, and added to a sterile 96 well plate. To the wells, PBS or test agent dissolved in PBS (100 µL) was added and incubated with shaking for 24 h. The biofilm (100 µL) was removed from the well plate, added to 900 µL sterile MilliQ water, and disrupted with pipetting and vortexing. Disrupted biofilms were serially diluted and spiral plated on TSA. Viability was assessed with colony counting. The minimum biofilm eradication concentration (MBEC) was defined as the lowest concentration of test agent required to reduce viability by 5-log (i.e., 10^8 to 10^3 CFU/mL).
(§4) The biofilm was then removed from its 96 well plate, added to a new 96 well plate containing tobramycin dissolved in PBS (100 µL), and incubated for 20 h. The biofilm was disrupted in 900 µL sterile MilliQ water with pipetting and vortexing, serially diluted, and spiral plated on TSA. Viability was assessed with colony counting.

AR 229 biofilm = test: Biofilm pretreatment with nitric oxide; assay type: cell-based, P. aeruginosa; conditions: tobramycin 2 µg/mL, NO-pretreatment 4 h
Method: as §3, §4

AR 230 biofilm = test: Biofilm pretreatment with nitric oxide; assay type: cell-based, P. aeruginosa; conditions: tobramycin 64 µg/mL, NO-pretreatment 4 h
Method: as §3, §4

AR 237 biofilm = test: Biofilm pretreatment with nitric oxide; assay type: cell-based, P. aeruginosa; conditions: tobramycin 1 µg/mL, NO-pretreatment 4 h
Method: as §3, §4

AR 239 biofilm = test: Biofilm pretreatment with nitric oxide; assay type: cell-based, P. aeruginosa; conditions: tobramycin 5000 µg/mL, NO-pretreatment 4 h
Method: as §3, §4

P. aeruginosa biofilms = test: Biofilm pretreatment with nitric oxide, all tested biofilms; assay type: cell-based; conditions: all tested P. aeruginosa biofilms incl. tobramycin-resistant strains, COS/NO at 25% MBEC for 4 h
Method: as §3, §4

PAK = test: Serial passaging resistance assay; assay type: cell-based, Pseudomonas aeruginosa
Method: Bacteria at a final concentration of 10^6 CFU/mL in TSB were incubated with serial dilutions of COS/NO and/or tobramycin for 24 h. Growth was assessed by measuring absorbance at 600 nm. The wells that had the highest concentration of test agent and an OD600 corresponding to more than 10^8 CFU/mL were diluted to 10^6 cfu/mL in TSB and incubated with fresh solutions of COS/NO or tobramycin for 24 h. A single passage was defined as one exposure, incubation, and subsequent dilution. Bacteria were passaged for up to 70 days.

[2] = antibiotic 4000 µg/mL, NO-pretreatment 25% MIC 4 h
[3] = tobramycin 16 µg/mL, NO-pretreatment 4 h

SMILES: NC[C@H]1O[C@H](O[C@H]2[C@H](O)[C@@H](O[C@H]3O[C@H](CO)[C@@H](O)[C@H](N)[C@H]3O)[C@H](N)C[C@@H]2N)[C@H](N)C[C@@H]1O [Tobramycin]
- Classification (ΣFIC) [1]: Additive
- ΣFIC (median fractional inhibitory concentration index) [1]: 0.625
- interaction of tobramycin-NO combination (PA 229): synergistically
- interaction of tobramycin-NO combination (PA 230): indifferent
- interaction of tobramycin-NO combination (PA 237): synergistically
- interaction of tobramycin-NO combination (PA 239): indifferent
- Classification (AR 230): Synergistic
- Log Difference in bacteria viability with vs without NO-pretreatment (AR 230): 3.54 log
- tobramycin-susceptibility with the addition of NO (ATCC S.aureus; ATCC S. aureus, NO-pretreatment): significant improvement
- Log Difference in bacteria viability with vs without NO-pretreatment (ATCC S.aureus; ATCC S.aureus, antibiotic […], NO-pretreatment 25% MIC 4 h): 4.88 log
- tobramycin-susceptibility with the addition of NO (ATCC MRSA; NO-pretreatment): significant improvement
- Classification (ATCC MRSA; [2]): Synergistic
- Log Difference in bacteria viability with vs without NO-pretreatment (ATCC MRSA; [2]): 4.09 log
- changes in tobramycin-susceptibility of biofilm (PAK biofilm; NO-pretreatment lasting less than 4 h): Minimal changes
- Classification (PAK biofilm; [3]): Synergistic
- Log Difference in biofilm viability with vs without NO-pretreatment (PAK biofilm; [3]): 4.71 log
- Classification (AR 229 biofilm): Synergistic
- Log Difference in biofilm viability with vs without NO-pretreatment (AR 229 biofilm): 4.39 log
- Classification (AR 230 biofilm): Synergistic
- Log Difference in biofilm viability with vs without NO-pretreatment (AR 230 biofilm): 5.15 log
- Classification (AR 237 biofilm): Synergistic
- Log Difference in biofilm viability with vs without NO-pretreatment (AR 237 biofilm): 4.85 log
- Classification (AR 239 biofilm): Synergistic
- Log Difference in biofilm viability with vs without NO-pretreatment (AR 239 biofilm): 4.90 log
- tobramycin susceptibility of biofilms after NO-pretreatment (P. aeruginosa biofilms): significantly more susceptible; also recorded: improved
- development of tobramycin-resistance (PAK; P. aeruginosa, concomitant delivery with COS/NO at 25% of its MIC): slowing or prevention
- change of tobramycin MIC on parallel exposures (PAK; P. aeruginosa, tobramycin alone, serial passages): increases
- MICn (PAK; PAK, after n = 10 passages): 16 µg/mL
- MIC (PAK; Pseudomonas aeruginosa, read-out: MIC0): 2 µg/mL (≈ 4.28 µM)
